# From article PMC11705955, “Lack of activity of HIV-1 integrase strand-transfer inhibitors on recombinase activating gene (RAG) activity at clinically relevant concentrations” (Microbiology Spectrum, 2024)
# B1: human core RAG2 (AA1-387), MBP-5A-RAG2 (domain or fragment, UniProt P55895 1-387, looked up)
# chain: MSLQMVTVSNNIALIQPGFSLMNFDGQVFFFGQKGWPKRSCPTGVFHLDVKHNHVKLKPTIFSKDSCYLPPLRYPATCTFKGSLESEKHQYIIHGGKTPNNEVSDKIYVMSIVCKNNKKVTFRCTEKDLVGDVPEARYGHSINVVYSRGKSMGVLFGGRSYMPSTHRTTEKWNSVADCLPCVFLVDFEFGCATSYILPELQDGLSFHVSIAKNDTIYILGGHSLANNIRPANLYRIRVDLPLGSPAVNCTVLPGGISVSSAILTQTNNDEFVIVGGYQLENQKRMICNIISLEDNKIEIREMETPDWTPDIKHSKIWFGSNMGNGTVFLGIPGDNKQVVSEGFYFYMLKCAEDDTNEEQTTFTNSQTSTEDPGDSTPFEDSEEFCFS
# notes: also called RAG2 core domain; source: Expi293F GnTI cells, plasmids transfected (co-expressed with core RAG1), purified (MBP-Trap, Superdex 200); not shown: MBP, N-terminal, kept
# Assays:
# [1] = molecular target: T1, recombinant human core RAG1 (AA387-1011)/core RAG2 (AA1-387) in the presence of HMGB1 (Homo sapiens, UniProt P15918+P55895); test: Biochemical RAG DNA cleavage assay (gel-based, dsDNA 12RSS/23RSS substrate); conditions: 25 nM RAG1-RAG2, 575 nM HMGB1, 10 nM dsDNA, 5 mM MgCl2, 1 h 37°C, no serum
# T1 construct: made in house; host or cells: RAG1/RAG2 co-expressed in Expi293F GnTI human cells; HMGB1 in E. coli BL21DE3
# T1 sequence (P15918 387-1011): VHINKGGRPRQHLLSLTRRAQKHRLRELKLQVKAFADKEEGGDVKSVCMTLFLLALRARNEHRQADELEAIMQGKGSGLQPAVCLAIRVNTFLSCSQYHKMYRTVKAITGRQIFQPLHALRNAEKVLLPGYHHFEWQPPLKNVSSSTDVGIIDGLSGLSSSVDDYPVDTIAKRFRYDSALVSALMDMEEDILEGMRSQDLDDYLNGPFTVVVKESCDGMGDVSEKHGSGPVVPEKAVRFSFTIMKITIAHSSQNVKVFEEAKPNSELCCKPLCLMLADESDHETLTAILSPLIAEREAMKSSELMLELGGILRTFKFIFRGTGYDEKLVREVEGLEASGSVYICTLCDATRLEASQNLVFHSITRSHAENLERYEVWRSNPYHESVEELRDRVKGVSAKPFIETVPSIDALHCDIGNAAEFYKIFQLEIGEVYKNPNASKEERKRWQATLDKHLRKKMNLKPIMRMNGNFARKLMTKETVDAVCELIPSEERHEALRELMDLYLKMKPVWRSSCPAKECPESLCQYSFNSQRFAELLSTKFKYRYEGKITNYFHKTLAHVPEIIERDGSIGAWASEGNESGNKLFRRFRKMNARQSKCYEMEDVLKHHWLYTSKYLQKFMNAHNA
# T1 sequence (P55895 1-387): B1 chain
# Excerpt: To directly observe the potential inhibition of RAG1/RAG2, we measured the effect of INSTIs on DNA cleavage by RAG1/RAG2 in the presence of HMGB1. This biochemical system utilizes pre-assembled recombinant human core RAG1 (AA387-1011)/core RAG2 (AA1-387) in the presence of excess truncated HMGB1 (AA1-163) and a linear dsDNA RSS substrate, using gel electrophoresis and a fluorescent dye to monitor cleavage products (Fig. 2A) ([24]). The dsDNA RSS substrate, containing both the 12RSS and 23RSS, was designed to have the different cleavage products resolved via gel electrophoresis. RAG1/RAG2 can singly cleave either the 12RSS or the 23RSS, or both, leading to potentially five different products in the reaction (Fig. 2B). HMGB1 orients RAG1/RAG2 for proper binding to the RSS substrate ([16]). We quantified the activity of RAG as the percentage of substrate conversion to a specific cleaved product, as separated by agarose gel electrophoresis and determined by the DNA-binding fluorescent dye. With the 569-bp substrate, a single cleavage of the 12RSS results in a 492-bp dsDNA and a 77-bp hairpin. Cleavage of the 23RSS alone produces a 433-bp dsDNA and a 136-bp hairpin. Successful cleavage of both RSSs results in a 356-bp dsDNA and both of the 77- and 136-bp hairpins. For the RAG activity analysis, we measured the amount of double cleaved product (356 bp) in relation to the amount of substrate (569 bp) at the end of the reaction. The optimal concentrations of RAG1/RAG2, HMGB1, and MgCl2 were determined through titration (Fig. S2). Because there is no direct RAG1/RAG2 inhibitor previously characterized, we used suramin, a polyanionic compound commonly used as a non-specific inhibitor for DNA/RNA binding or processing proteins as a control for inhibition ([25], [26]).
# Prior to the cleavage assay, compounds at the designated concentrations were spotted into 96-well plates using the Tecan Digital D300e (Tecan, Mannedorf, Switzerland). RAG1/RAG2 was incubated with HMGB1 and MgCl2 on ice for at least 15 min in a reaction buffer (25-mM 3-(N-morpholino)propanesulfonic acid [MOPS], pH 7.0, 50-mM KCl, and 2-mM DTT). After the initial incubation, the enzyme solution was added to the compound plates and incubated for an additional 15 min at room temperature. dsDNA substrate in reaction buffer was added to the plates to initiate the reaction. The final conditions of the reaction are 25-nM RAG1–RAG2 complex, 575-nM HMGB1, 10-nM dsDNA substrate, and 5-mM MgCl2. After 1 h at 37°C, reactions were quenched by the addition of final concentrations of 0.19% SDS, 45.5-µg/mL Proteinase K, and 60-mM EDTA.
# Glycerol was added to a final concentration of 7.6% in each sample, and samples were loaded onto non-denaturing 6% Tris–borate–EDTA (TBE) gels in 1× TBE buffer. The samples were run at 100 V for 1.5 h, and gels were stained with 1× SYBR Gold in 1× TBE for 20 min. The stained gels were imaged with an Amersham Typhoon Biomolecular Imager.
# The gel images were analyzed using ImageQuant software (Cytiva). The densities of the 569-bp-length substrate and fully cleaved 356-bp-length product were quantified. The product density was divided by the sum of substrate and product bands to obtain a percent product value. These calculated values were subtracted from a negative control (pre-quenched reaction where EDTA was added before reaction was initiated) and then normalized to the DMSO-treated control. The normalized data were plotted against concentration using GraphPad Prism (version 9.3; GraphPad Software, San Diego, CA, USA).
# [2] = test system: murine mCherry-core RAG1 / mCherry-RAG2 V(D)J recombination in Expi293F cells; test: Extrachromosomal cell-based V(D)J recombination assay (GFP reporter, flow cytometry)
# Excerpt: To further evaluate the effect of HIV-1 integrase inhibitors on RAG activity in a cellular context, we optimized a novel extrachromosomal cell-based V(D)J recombination assay, enabling assessment of multiple compounds in a dose–response manner by flow cytometry ([33]). The schematic of FL murine RAG1 and RAG2 proteins, including the active site residues (DDE motif) in RAG1 and catalytically essential core regions of each protein, are shown in Fig. 5A. The cell-based assay used vectors that encode for the core RAG1 protein (instead of the FL version) and FL murine RAG2 expressed as C-terminal fusions to mCherry, termed mCherry-core RAG1 and mCherry-RAG2. The core regions of each RAG protein are sufficient to catalyze V(D)J recombination, whereas the non-core regions function to regulate the recombination reaction ([13]). […] The consensus RSS used in this assay contains a conserved heptamer and nonamer separated by 12 or 23 non-conserved bp (12RSS and 23RSS) (Fig. 5B). A general schematic of the design for the plasmid substrate with the 12RSS and 23RSS orientations before and after V(D)J recombination is presented in Fig. 5C. More specifically, the plasmid substrate pMAXgfp-INV was designed with a 12RSS and a 23RSS flanking each side of the Pontellina plumata green fluorescent protein gene (termed maxGFP), where the gene is in an inverted orientation relative to the CMV promoter (Fig. 5D). The RSSs are positioned in a co-linear orientation, such that successful V(D)J recombination activity will result in inversion of the maxGFP gene to place it in a transcriptionally active orientation with resulting expression of GFP. Detection of GFP-expressing cells using microscopy and flow cytometry was used as a direct readout of V(D)J recombination activity.
# For the recombination assay, the pMAXgfp-INV plasmid substrate and RAG1/RAG2 expression vectors (mCherry-core RAG1 and mCherry-RAG2) were transiently transfected into Expi293 cells in the absence or presence of integrase inhibitors and were assessed via microscopy and flow cytometry. The fluorescence signal from the mCherry-tag is used to assess transfection efficiency of RAG1/RAG2 vectors (Fig. 6A). We observed that transfection of the pMAXgfp-INV substrate into Expi293 cells with RAG1/RAG2 expression vectors yielded robust GFP expression 48 h post-transfection in the cells treated with vehicle control (0.1% dimethyl sulfoxide [DMSO]) (Fig. 6A). […] NU7026 inhibits double-strand break repair, which is a necessary step after DNA cleavage by RAG enzymes, and thus serves as an indirect inhibitor of RAG activity ([35]).
# To test the effect of HIV-1 integrase inhibitors on V(D)J recombination activity, we optimized an extrachromosomal cell-based V(D)J recombination assay ([33]). Briefly, Expi293 cells were plated at 1 × 10^6 cells/mL in six-well plates in Gibco Expi293 expression media the day before transfection. The next day, the Expi293 cells were co-transfected with three separate vectors, pMAXgfp-INV plasmid substrate, mCherry-core RAG1, and mCherry-RAG2 expression vectors with a 4:1 transfection reagent:DNA ratio using ExpiFectamine 293 transfection reagent (Gibco). Vehicle or candidate inhibitors were added to cell samples 2 h after transfection, with six different concentrations of each inhibitor added to separate wells. Fivefold dilutions for each inhibitor starting from 10 µM were tested.
# Experiments were performed with six separate inhibitors in at least three independent experiments. Two negative control conditions for recombination activity were performed in parallel and include (i) transfections in the presence of NU7026 at 30 and 50 µM (Abcam) and (ii) using a modified pMAXgfp-INV substrate containing two 12RSSs (instead of one 12RSS and one 23RSS) that is inefficiently recombined by the RAG proteins. Vehicle control (0.1% DMSO) served as the positive control for GFP expression. The fluorescence signal from the mCherry tag was used to assess transfection efficiency. […]
# [3] = 5-day cytotoxicity assay with Cell Titer Glo readout, GALPC3; assay type: cell-based; conditions: human
# Excerpt: (§1) Supplemental Table S2. CC50 values for INSTIs in 5- day cytotoxicity as says with Cell Titer
# (§2) Expi293F GALPC3 GALHEP HUH7 MRC5 MT4 PBMC PBMC
# (§3) Kidney Prostate Hepatoma Hepatoma Lung T-cell line Primary Primary
# (§4) (embryonic) cancer cell cell line cell line fibroblast cells
# [4] = 5-day cytotoxicity assay with Cell Titer Glo readout, GALHEPG2; assay type: cell-based; conditions: human
# Excerpt: as §1, §2, §3, §4
# [5] = 5-day cytotoxicity assay with Cell Titer Glo readout, HUH7; assay type: cell-based; conditions: human
# Excerpt: as §1, §2, §3, §4
# [6] = 5-day cytotoxicity assay with Cell Titer Glo readout, MRC5; assay type: cell-based; conditions: human
# Excerpt: as §1, §2, §3, §4
# [7] = 5-day cytotoxicity assay with Cell Titer Glo readout, MT4; assay type: cell-based; conditions: human
# Excerpt: as §1, §2, §3, §4
# [8] = 5-day cytotoxicity assay with Cell Titer Glo readout, PBMC; assay type: cell-based; conditions: CC50
# Excerpt: as §1, §2, §3, §4
# PBMC primary cells = test: as above; assay type: cell-based; conditions: 5 day
# Excerpt: as §1, §2, §3, §4
# [9] = molecular target: T2, human core RAG1 (AA387-1011), MBP-10N-PreScission-RAG1 (human, UniProt P15918-1 387-1011); test: SEC; analytical SEC-HPLC, Superdex 200 Increase 5/150 GL column, 10-µg protein sample; co-expressed and co-purified MBP-tagged core RAG1 and core RAG2; conditions: both partners purified
# T2 construct: also called RAG1 core domain; source: Expi293F GnTI cells, plasmids transfected (co-expressed with core RAG2), purified (MBP-Trap, Superdex 200); not shown: MBP, N-terminal, kept
# T2 sequence (looked up): T1 sequence (P15918 387-1011)
molecule,measurement,setting,value
Cc1ccc(C(=O)Nc2ccc(S(=O)(=O)O)c3cc(S(=O)(=O)O)cc(S(=O)(=O)O)c23)cc1NC(=O)c1cccc(NC(=O)Nc2cccc(C(=O)Nc3cc(C(=O)Nc4ccc(S(=O)(=O)O)c5cc(S(=O)(=O)O)cc(S(=O)(=O)O)c45)ccc3C)c2)c1 [Suramin],IC50,[1],4500 ± 400 nM
O=c1cc(N2CCOCC2)oc2c1ccc1ccccc12 [NU7026],Effect on percentage of GFP-positive cells / RAG recombination,"[2]; across concentrations tested, 48 h post-transfection",dose-dependent decrease in percentage of GFP-positive cells
same,IC50,"[2]; compound added 2 h after transfection, read 48 h post-transfection, serum-free media, read-out: IC50 in cellular V(D)J recombination assay (% GFP-positive cells)",41500 ± 9400 nM
COc1ccc(C[C@H](N)C(=O)N[C@H]2[C@@H](O)[C@H](n3cnc4c(N(C)C)ncnc43)O[C@@H]2CO)cc1 [Puromycin],CC50 at 5 day,[3],390 nM
same,CC50 at 5 day,[4],410 nM
same,CC50 at 5 day,[5],320 nM
same,CC50 at 5 day,[6],310 nM
same,CC50 at 5 day,[7],210 nM
same,CC50 at 5 day,[8],540 nM
same,CC50,PBMC primary cells,500 nM
B1,binding result,[9],binds
